# Results as given in PubChem BioAssay (NCI).
#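 Each compound was tested at five concentrations against cells in 96-well plates for 48 hours. GI50 = concentration required for 50% inhibition of growth. TGI: concentration producing complete growth inhibition.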
# Tests used:
# Test in all cases: NCI tumour cell line growth inhibition, 48 h
# IGROV1 ovarian = test system: IGROV1 ovarian
# SK-MEL-5 melanoma = test system: SK-MEL-5 melanoma
# SNB-75 CNS = test system: SNB-75 CNS
# HS 578T breast = test system: HS 578T breast
# KM12 colon = test system: KM12 colon
# MALME-3M melanoma = test system: MALME-3M melanoma
# T-47D breast = test system: T-47D breast
# NCI-H23 lung = test system: NCI-H23 lung
# SF-295 CNS = test system: SF-295 CNS
# ACHN renal = test system: ACHN renal
# DU-145 prostate = test system: DU-145 prostate
# MDA-MB-231 breast = test system: MDA-MB-231 breast
# HOP-62 NSCLC = test system: HOP-62 NSCLC
# SW-620 colon = test system: SW-620 colon
# LOX IMVI melanoma = test system: LOX IMVI melanoma
# A498 renal = test system: A498 renal
# OVCAR-5 ovarian = test system: OVCAR-5 ovarian
# OVCAR-3 ovarian = test system: OVCAR-3 ovarian
# SF-268 CNS = test system: SF-268 CNS
# MOLT-4 leukemia = test system: MOLT-4 leukemia
# HOP-92 NSCLC = test system: HOP-92 NSCLC
# 786-0 renal = test system: 786-0 renal
# CCRF-CEM leukemia = test system: CCRF-CEM leukemia
# UACC-257 melanoma = test system: UACC-257 melanoma
# K-562 leukemia = test system: K-562 leukemia
# A549 NSCLC = test system: A549 NSCLC
# EKVX NSCLC = test system: EKVX NSCLC
# SK-OV-3 ovarian = test system: SK-OV-3 ovarian
# SNB-19 CNS = test system: SNB-19 CNS
# SK-MEL-28 melanoma = test system: SK-MEL-28 melanoma
# HCT-116 colon = test system: HCT-116 colon
# SF-539 CNS = test system: SF-539 CNS
# NCI-H226 lung = test system: NCI-H226 lung
# RPMI-8226 leukemia = test system: RPMI-8226 leukemia
# RXF 393 renal = test system: RXF 393 renal
# SK-MEL-2 melanoma = test system: SK-MEL-2 melanoma
# NCI/ADR-RES ovarian = test system: NCI/ADR-RES ovarian
# CAKI-1 renal = test system: CAKI-1 renal
# HCC-2998 colon = test system: HCC-2998 colon
# PC-3 prostate = test system: PC-3 prostate
# M14 melanoma = test system: M14 melanoma
# NCI-H460 lung = test system: NCI-H460 lung
# UACC-62 melanoma = test system: UACC-62 melanoma
# NCI-H522 lung = test system: NCI-H522 lung
# HCT-15 colon = test system: HCT-15 colon
# SR leukemia = test system: SR leukemia
# HT29 colon = test system: HT29 colon
# SN12C renal = test system: SN12C renal
# UO-31 renal = test system: UO-31 renal
# U251 CNS = test system: U251 CNS
# TK-10 renal = test system: TK-10 renal
# COLO 205 colon = test system: COLO 205 colon
# OVCAR-8 ovarian = test system: OVCAR-8 ovarian
# MCF7 breast = test system: MCF7 breast
# HL-60(TB) leukemia = test system: HL-60(TB) leukemia
# BT-549 breast = test system: BT-549 breast
# OVCAR-4 ovarian = test system: OVCAR-4 ovarian
smiles,measurement,setting,value
COc1ccc([C@H]2[C@H](O)C(=O)N2c2cc(OC)c(OC)c(OC)c2)cc1O,GI50,IGROV1 ovarian,< 20.6 nM
same,TGI,IGROV1 ovarian,> 100000 nM
same,GI50,SK-MEL-5 melanoma,< 15.5 nM
same,TGI,SK-MEL-5 melanoma,59.4 nM
same,GI50,SNB-75 CNS,28.2 nM
same,TGI,SNB-75 CNS,> 100000 nM
same,GI50,HS 578T breast,20 nM
same,TGI,HS 578T breast,> 100000 nM
same,GI50,KM12 colon,< 15.3 nM
same,TGI,KM12 colon,> 100000 nM
same,GI50,MALME-3M melanoma,< 28.4 nM
same,TGI,MALME-3M melanoma,> 100000 nM
same,GI50,T-47D breast,> 100000 nM
same,TGI,T-47D breast,> 100000 nM
same,GI50,NCI-H23 lung,37.9 nM
same,TGI,NCI-H23 lung,> 100000 nM
same,GI50,SF-295 CNS,33.7 nM
same,TGI,SF-295 CNS,> 100000 nM
same,GI50,ACHN renal,< 18.1 nM
same,TGI,ACHN renal,> 100000 nM
same,GI50,DU-145 prostate,< 19.6 nM
same,TGI,DU-145 prostate,> 100000 nM
same,GI50,MDA-MB-231 breast,< 17.8 nM
same,TGI,MDA-MB-231 breast,> 100000 nM
same,GI50,HOP-62 NSCLC,< 22.4 nM
same,TGI,HOP-62 NSCLC,> 100000 nM
same,GI50,SW-620 colon,< 18.2 nM
same,TGI,SW-620 colon,> 100000 nM
same,GI50,LOX IMVI melanoma,< 10 nM
same,TGI,LOX IMVI melanoma,> 100000 nM
same,GI50,A498 renal,> 100000 nM
same,TGI,A498 renal,> 100000 nM
same,GI50,OVCAR-5 ovarian,37.7 nM
same,TGI,OVCAR-5 ovarian,> 100000 nM
same,GI50,OVCAR-3 ovarian,< 18 nM
same,GI50,SF-268 CNS,30.6 nM
same,TGI,SF-268 CNS,> 100000 nM
same,GI50,MOLT-4 leukemia,< 19.2 nM
same,TGI,MOLT-4 leukemia,> 100000 nM
same,GI50,HOP-92 NSCLC,43.8 nM
same,TGI,HOP-92 NSCLC,> 100000 nM
same,GI50,786-0 renal,< 20.8 nM
same,TGI,786-0 renal,> 100000 nM
same,GI50,CCRF-CEM leukemia,< 16.7 nM
same,TGI,CCRF-CEM leukemia,> 100000 nM
same,TGI,UACC-257 melanoma,> 100000 nM
same,GI50,K-562 leukemia,< 15.8 nM
same,TGI,K-562 leukemia,> 100000 nM
same,GI50,A549 NSCLC,32.1 nM
same,TGI,A549 NSCLC,> 100000 nM
same,TGI,EKVX NSCLC,> 100000 nM
same,GI50,SK-OV-3 ovarian,33.2 nM
same,TGI,SK-OV-3 ovarian,> 100000 nM
same,GI50,SNB-19 CNS,48.5 nM
same,TGI,SNB-19 CNS,> 100000 nM
same,GI50,SK-MEL-28 melanoma,55.1 nM
same,TGI,SK-MEL-28 melanoma,> 100000 nM
same,GI50,HCT-116 colon,< 10 nM
same,TGI,HCT-116 colon,> 100000 nM
same,GI50,SF-539 CNS,< 10 nM
same,TGI,SF-539 CNS,43.6 nM
same,GI50,NCI-H226 lung,< 10 nM
same,TGI,NCI-H226 lung,2270 nM
same,GI50,RPMI-8226 leukemia,< 21.4 nM
same,TGI,RPMI-8226 leukemia,> 100000 nM
same,GI50,RXF 393 renal,60.2 nM
same,TGI,RXF 393 renal,> 100000 nM
same,GI50,SK-MEL-2 melanoma,40 nM
same,TGI,SK-MEL-2 melanoma,> 100000 nM
same,GI50,NCI/ADR-RES ovarian,33.3 nM
same,TGI,NCI/ADR-RES ovarian,> 100000 nM
same,GI50,CAKI-1 renal,< 15.3 nM
same,TGI,CAKI-1 renal,> 100000 nM
same,GI50,HCC-2998 colon,39.1 nM
same,TGI,HCC-2998 colon,> 100000 nM
same,GI50,PC-3 prostate,< 19 nM
same,TGI,PC-3 prostate,> 100000 nM
same,GI50,M14 melanoma,< 16.3 nM
same,TGI,M14 melanoma,> 100000 nM
same,GI50,NCI-H460 lung,< 18.3 nM
same,TGI,NCI-H460 lung,> 100000 nM
same,GI50,UACC-62 melanoma,< 23.2 nM
same,TGI,UACC-62 melanoma,> 100000 nM
same,GI50,NCI-H522 lung,< 10 nM
same,TGI,NCI-H522 lung,< 14 nM
same,GI50,HCT-15 colon,22.7 nM
same,TGI,HCT-15 colon,> 100000 nM
same,GI50,SR leukemia,< 12.4 nM
same,TGI,SR leukemia,> 100000 nM
same,GI50,HT29 colon,202 nM
same,TGI,HT29 colon,1760 nM
same,GI50,SN12C renal,< 16.9 nM
same,TGI,SN12C renal,> 100000 nM
same,GI50,UO-31 renal,50.3 nM
same,TGI,UO-31 renal,> 100000 nM
same,GI50,U251 CNS,21.7 nM
same,TGI,U251 CNS,> 100000 nM
same,GI50,TK-10 renal,> 100000 nM
same,TGI,TK-10 renal,> 100000 nM
same,GI50,COLO 205 colon,238 nM
same,TGI,COLO 205 colon,1210 nM
same,GI50,OVCAR-8 ovarian,< 16.3 nM
same,GI50,MCF7 breast,< 10 nM
same,TGI,MCF7 breast,> 100000 nM
same,GI50,HL-60(TB) leukemia,< 13.6 nM
same,GI50,BT-549 breast,< 15.1 nM
same,TGI,BT-549 breast,211 nM
same,GI50,OVCAR-4 ovarian,4780 nM
same,TGI,OVCAR-4 ovarian,> 100000 nM
